A value given as a limit tells only on which side of the number the result lay.

As usually defined, the IC50 is the concentration at which inhibition is half-maximal.

One test deals with T1, Cathepsin G (Homo sapiens, UniProt P08311).
T1 sequence (P08311 whole entry): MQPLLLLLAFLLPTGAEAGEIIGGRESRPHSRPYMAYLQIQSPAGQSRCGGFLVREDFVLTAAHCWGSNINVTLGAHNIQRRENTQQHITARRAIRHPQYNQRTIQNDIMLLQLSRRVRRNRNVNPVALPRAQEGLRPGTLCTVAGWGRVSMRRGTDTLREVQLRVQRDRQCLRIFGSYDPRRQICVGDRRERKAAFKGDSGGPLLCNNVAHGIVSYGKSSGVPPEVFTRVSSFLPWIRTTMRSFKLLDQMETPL
The test can be described thus: Inhibitory activity against human leukocyte cathepsin G (h-CG).
For the compound `CCCCCC(NC(=O)CCC)C(C)(C)C(=O)OC(=O)C(C)(C)C(CCCCC)NC(=O)CCC` (stereo unspecified), the IC50 was 1.6 µM.

`CC(C)(C(=O)OC(=O)C(C)(C)C(NC(=O)c1ccc(C#N)cc1)C1CC=CCC1)C(NC(=O)c1ccc(C#N)cc1)C1CC=CCC1` (stereo unspecified) gave an IC50 of 0.069 µM.

For the compound `O=C(CCNC(=O)c1ccccc1)OC(=O)CCNC(=O)c1ccccc1`, inhibition was half-maximal at 3.1 µM (IC50).

For a further test, the target named is T2, Chymase (Homo sapiens, UniProt P23946).
T2 sequence (P23946 whole entry): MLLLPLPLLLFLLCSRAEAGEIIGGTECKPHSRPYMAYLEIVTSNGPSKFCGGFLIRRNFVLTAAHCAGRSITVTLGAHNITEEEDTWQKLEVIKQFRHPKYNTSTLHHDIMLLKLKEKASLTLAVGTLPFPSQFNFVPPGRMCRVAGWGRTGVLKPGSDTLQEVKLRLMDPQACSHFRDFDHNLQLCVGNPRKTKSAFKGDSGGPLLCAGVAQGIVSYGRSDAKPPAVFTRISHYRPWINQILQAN
The test can be described thus: Inhibitory activity against human chymase (h-chymase).
`CC(C)(C(=O)OC(=O)C(C)(C)C(CCc1ccccc1)NC(=O)c1ccc(C#N)cc1)C(CCc1ccccc1)NC(=O)c1ccc(C#N)cc1` (stereo unspecified) displayed an IC50 of 0.27 µM.

Consider `CCCC(NC(=O)c1ccccc1)C(C)(C)C(=O)OC(=O)C(C)(C)C(CCC)NC(=O)c1ccccc1` (stereo unspecified), for which the IC50 came out at 0.058 µM.

Take `O=C(CC(CCc1ccccc1)NC(=O)c1ccccc1)OC(=O)CC(CCc1ccccc1)NC(=O)c1ccccc1` (stereo unspecified): the IC50 is greater than 1000 µM.

As to `CCCCCC(NC(=O)CCC)C(C)(C)C(=O)OC(=O)C(C)(C)C(CCCCC)NC(=O)CCC` (stereo unspecified), half-maximal inhibition (IC50) was put at 29 µM.

`CC(C)(C(=O)OC(=O)C(C)(C)C(NC(=O)c1ccc(C#N)cc1)C1CC=CCC1)C(NC(=O)c1ccc(C#N)cc1)C1CC=CCC1` (stereo unspecified) had an IC50 of 0.13 µM.

The compound `CCC(NC(=O)c1ccccc1)C(C)(C)C(=O)OC(=O)C(C)(C)C(CC)NC(=O)c1ccccc1` (stereo unspecified) showed an IC50 of 0.037 µM.

As to `CC(C)(CNC(=O)c1ccccc1)C(=O)OC(=O)C(C)(C)CNC(=O)c1ccccc1`, the IC50 turned out to be 3 µM.

Compound `O=C(CCNC(=O)c1ccccc1)OC(=O)CCNC(=O)c1ccccc1` gave an IC50 of 40 µM.

As for `CC(C)(C(=O)OC(=O)C(C)(C)C(NC(=O)c1ccc(C#N)cc1)c1ccccc1)C(NC(=O)c1ccc(C#N)cc1)c1ccccc1` (stereo unspecified), the IC50 was 13 µM.

Compound `CCCCCCC(NC(=O)c1ccccc1)C(C)(C)C(=O)OC(=O)C(C)(C)C(CCCCCC)NC(=O)c1ccccc1` (stereo unspecified) displayed an IC50 of 0.032 µM.

On to `CCCCC(NC(=O)c1ccccc1)C(C)(C)C(=O)OC(=O)C(C)(C)C(CCCC)NC(=O)c1ccccc1` (stereo unspecified), for which the midpoint of inhibition, the IC50, lay at 0.005 µM.

Take `Cc1ccccc1C(NC(=O)c1ccc(C#N)cc1)C(C)(C)C(=O)OC(=O)C(C)(C)C(NC(=O)c1ccc(C#N)cc1)c1ccccc1C` (stereo unspecified): the IC50 was determined as 8.7 µM.

Regarding `CC(C)(C(=O)OC(=O)C(C)(C)C(NC(=O)c1ccc(C#N)cc1)c1ccccc1Cl)C(NC(=O)c1ccc(C#N)cc1)c1ccccc1Cl` (stereo unspecified), the IC50 came to 47 µM.

Compound `CCCCCC(NC(=O)c1ccccc1)C(C)(C)C(=O)OC(=O)C(C)(C)C(CCCCC)NC(=O)c1ccccc1` (stereo unspecified) returned an IC50 of 0.013 µM.

For the compound `CC(C)(C(=O)OC(=O)C(C)(C)C(CCc1ccccc1)NC(=O)c1ccccc1)C(CCc1ccccc1)NC(=O)c1ccccc1` (single isomer, unassigned; (+)), the IC50 was found to be 0.091 µM.

With `CCCC(=O)NC(CCc1ccccc1)C(C)(C)C(=O)OC(=O)C(C)(C)C(CCc1ccccc1)NC(=O)CCC` (stereo in doubt; 9 (-)), the midpoint of inhibition, the IC50, lay at 0.0056 µM.

In turn, `CC(C)(C(=O)OC(=O)C(C)(C)C(CCc1ccccc1)NC(=O)c1ccccc1)C(CCc1ccccc1)NC(=O)c1ccccc1` (stereo in doubt; 9) gave an IC50 of 0.02 µM.

`CCCC(=O)NC(CCc1ccccc1)C(C)(C)C(=O)OC(=O)C(C)(C)C(CCc1ccccc1)NC(=O)CCC` (stereo in doubt; 15) had an IC50 of 2.6 µM.

Values taken from ChEMBL document CHEMBL1132518, “Symmetrical anhydride-type serine protease inhibitors: structure-activity relationship studies of human chymase inhibitors” (Bioorg Med Chem Lett, 1999).
